From patent publication US10112934B2, “(Cyano-dimethyl-methyl)-isoxazoles and -[1,3,4]thiadiazoles” (Centrexion Therapeutics Corporation, priority 2013, dated 2018)

Key:
human CB1R = human CB1R (Homo sapiens (Human), UniProt P21554); assay: CB1 cAMP (assay 2); format: cell-based; conditions: CHO cells expressing human CB1R; inhibition of forskolin-stimulated cAMP
human MDR1 P-gp = human MDR1 P-gp (Homo sapiens (Human), UniProt P08183); assay: MDCK assay: efflux in MDCK cells transfected with the human MDR1 gene (assay 3); format: in vitro ADME; conditions: MDCK-MDR1 cell monolayers, pH 7.4, 37° C., read-out: MDCK efflux ratio (BA/AB)
Sequence of human MDR1 P-gp (P08183 whole entry): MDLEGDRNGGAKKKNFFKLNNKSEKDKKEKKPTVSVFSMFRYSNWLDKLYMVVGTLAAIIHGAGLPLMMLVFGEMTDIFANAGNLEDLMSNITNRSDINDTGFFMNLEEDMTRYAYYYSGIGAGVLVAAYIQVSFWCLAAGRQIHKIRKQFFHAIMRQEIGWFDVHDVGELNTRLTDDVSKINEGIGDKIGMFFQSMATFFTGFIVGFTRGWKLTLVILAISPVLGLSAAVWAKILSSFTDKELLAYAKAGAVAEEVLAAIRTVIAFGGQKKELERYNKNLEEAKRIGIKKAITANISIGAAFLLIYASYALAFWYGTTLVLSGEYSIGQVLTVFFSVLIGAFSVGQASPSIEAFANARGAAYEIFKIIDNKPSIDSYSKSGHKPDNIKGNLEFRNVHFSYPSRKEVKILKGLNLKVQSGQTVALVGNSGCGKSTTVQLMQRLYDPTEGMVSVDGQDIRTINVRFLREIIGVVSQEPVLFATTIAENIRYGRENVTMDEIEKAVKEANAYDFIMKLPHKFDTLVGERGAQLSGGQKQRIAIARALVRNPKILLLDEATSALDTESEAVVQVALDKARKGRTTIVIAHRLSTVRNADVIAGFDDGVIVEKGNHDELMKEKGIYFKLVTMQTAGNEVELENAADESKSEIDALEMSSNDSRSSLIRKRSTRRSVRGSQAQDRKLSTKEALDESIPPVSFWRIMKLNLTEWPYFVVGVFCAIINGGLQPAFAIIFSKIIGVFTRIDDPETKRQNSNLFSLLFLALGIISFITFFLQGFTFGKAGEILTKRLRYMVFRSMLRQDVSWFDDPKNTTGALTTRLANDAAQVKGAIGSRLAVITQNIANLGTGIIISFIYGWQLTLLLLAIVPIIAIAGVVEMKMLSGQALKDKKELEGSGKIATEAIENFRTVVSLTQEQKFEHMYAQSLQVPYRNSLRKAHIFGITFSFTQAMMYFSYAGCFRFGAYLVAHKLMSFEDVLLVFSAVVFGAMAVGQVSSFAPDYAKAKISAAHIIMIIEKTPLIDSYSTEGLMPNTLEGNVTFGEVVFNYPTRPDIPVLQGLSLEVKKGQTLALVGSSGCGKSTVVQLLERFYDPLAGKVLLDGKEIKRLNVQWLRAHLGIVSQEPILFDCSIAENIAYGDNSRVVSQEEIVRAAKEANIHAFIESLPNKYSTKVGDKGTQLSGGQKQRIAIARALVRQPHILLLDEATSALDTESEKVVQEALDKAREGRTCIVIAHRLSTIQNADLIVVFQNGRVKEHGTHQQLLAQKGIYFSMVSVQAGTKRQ
Procedure: C. Assessment of Efflux in Madin-Darby Canine Kidney Cells Transfected with the Human MDR1 Gene (MDCK Assay) (Assay 3)
Apparent permeability coefficients (PE) of the compounds across the MDCK-MDR1 cell monolayers are measured (pH 7.4, 37° C.) in apical-to-basal (AB) and basal-to-apical (BA) transport direction. AB permeability (PEAB) represents drug absorption from the blood into the brain and BA permeability (PEBA) drug efflux from the brain back into the blood via both passive permeability as well as active transport mechanisms mediated by efflux and uptake transporters that are expressed on the MDCK-MDR1 cells, predominantly by the overexpressed human MDR1 P-gp. The compounds are assigned to permeability/absorption classes by comparison of the AB permeabilities with the AB permeabilities of reference compounds with known in vitro permeability and oral absorption in the human. Identical or similar permeabilities in both transport directions indicate passive permeation, vectorial permeability points to additional active transport mechanisms. Higher PEBA than PEAB indicates the involvement of active efflux mediated by MDR1 P-gp. Active transport is concentration-dependently saturable.
MDCK-MDR1 cells (1-2×10e5 cells/1 cm2 area) are seeded on filter inserts (Costar transwell polycarbonate or PET filters, 0.4 μm pore size) and cultured (DMEM) for 7 days. Subsequently, the MDR1 expression is boosted by culturing the cells with 5 mM sodium butyrate in full medium for 2 days. Compounds are dissolved in appropriate solvent (like DMSO, 1-20 mM stock solutions). Stock solutions are diluted with HTP-4 buffer (128.13 mM NaCl, 5.36 mM KCl, 1 mM MgSO4, 1.8 mM CaCl2, 4.17 mM NaHCO3, 1.19 mM Na2HPO4×7H2O, 0.41 mM NaH2PO4×H2O, 15 mM HEPES, 20 mM glucose, 0.25% BSA, pH 7.4) to prepare the transport solutions (0.1-300 μM compound, final DMSO<=0.5%). The transport solution (TL) is applied to the apical or basolateral donor side for measuring A-B or B-A permeability (3 filter replicates), respectively. The receiver side contains the same buffer as the donor side. Samples are collected at the start and end of experiment from the donor and at various time intervals for up to 2 hours also from the receiver side for concentration measurement by HPLC-MS/MS or scintillation counting. Sampled receiver volumes are replaced with fresh receiver solution.

Sequence of human CB1R (P21554 whole entry): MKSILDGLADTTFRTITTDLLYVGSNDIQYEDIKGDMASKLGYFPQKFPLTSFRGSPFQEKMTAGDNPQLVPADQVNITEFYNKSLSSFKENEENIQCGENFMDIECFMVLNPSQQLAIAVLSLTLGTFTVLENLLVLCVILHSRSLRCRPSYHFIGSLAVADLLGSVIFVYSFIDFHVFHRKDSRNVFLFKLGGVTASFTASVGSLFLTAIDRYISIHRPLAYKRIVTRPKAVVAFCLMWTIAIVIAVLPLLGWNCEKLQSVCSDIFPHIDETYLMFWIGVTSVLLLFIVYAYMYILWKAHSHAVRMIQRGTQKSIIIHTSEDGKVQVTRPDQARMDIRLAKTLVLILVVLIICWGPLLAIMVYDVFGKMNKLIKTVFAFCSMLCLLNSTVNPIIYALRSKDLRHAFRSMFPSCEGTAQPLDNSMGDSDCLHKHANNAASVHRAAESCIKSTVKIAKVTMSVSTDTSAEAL

CC(C)(CO)c1cc(NC(=O)C(C)(C)S(=O)(=O)CC2CCOCC2)on1 [Example 1 in WO2010036630]
EC50 (human CB1R): > 50 µM
efflux ratio (human MDR1 P-gp): 16

CC(C)(C#N)c1cc(NC(=O)C(C)(C)S(=O)(=O)CCCC(F)(F)F)on1 [Example 1, N-[3-(Cyano-dimethyl-methyl)-isoxazol-5-yl]-2-methyl-2-(4,4,4-trifluoro-butane-1-sulfonyl)-propionamide]
efflux ratio (human MDR1 P-gp): 2.2

CC(C)(CO)c1cc(NC(=O)C(C)(C)S(=O)(=O)C2CCOCC2)on1 [Example 2 in WO2010036630]
efflux ratio (human MDR1 P-gp): 7.4

CC(C)(C#N)c1cc(NC(=O)C(C)(C)S(=O)(=O)CC2CCOCC2)on1 [Example 2, N-[3-(Cyano-dimethyl-methyl)-isoxazol-5-yl]-2-methyl-2-(tetrahydro-pyran-4-ylmethanesulfonyl)-propionamide]
efflux ratio (human MDR1 P-gp): 6.5

CC(C)(C#N)c1cc(NC(=O)C(C)(C)S(=O)(=O)C2CCOCC2)on1 [Example 3]
efflux ratio (human MDR1 P-gp): 2.5

CN(CC1CCOCC1)C(C)(C)C(=O)Nc1cc(C(C)(C)C#N)no1 [Example 4]
efflux ratio (human MDR1 P-gp): 0.75

CN(C1CCN(S(C)(=O)=O)CC1)C(C)(C)C(=O)Nc1cc(C(C)(C)C#N)no1 [Example 5]
efflux ratio (human MDR1 P-gp): 5.1

CN(CC1CCOCC1)C(C)(C)C(=O)Nc1cc(C(C)(C)CO)no1 [Example 7 in WO2010147792]
efflux ratio (human MDR1 P-gp): 1.2

CN(CC1CCOCC1)C(C)(C)C(=O)Nc1nnc(C(C)(C)C#N)s1 [Example 7, N-[5-(Cyano-dimethyl-methyl)-[1,3,4]thiadiazol-2-yl]-2-methyl-2-[methyl-(tetrahydro-pyran-4-ylmethyl)-amino]-propionamide]
efflux ratio (human MDR1 P-gp): 2.1

CN(C1CCN(S(C)(=O)=O)CC1)C(C)(C)C(=O)Nc1nnc(C(C)(C)C#N)s1 [Example 8]
efflux ratio (human MDR1 P-gp): 16

COCC(C)(C)c1cc(NC(=O)C(C)(C)S(=O)(=O)CC2CCOCC2)on1 [Example 17 in WO2010036630]
efflux ratio (human MDR1 P-gp): 4.8

CN(CC1CCOCC1)C(C)(C)C(=O)Nc1nnc(C(C)(C)CO)s1 [Example 30 in WO2010147792]
efflux ratio (human MDR1 P-gp): 5.2

COCC(C)(C)c1cc(NC(=O)C(C)(C)S(=O)(=O)C2CCOCC2)on1 [Example 38 in WO2010036630]
EC50 (human CB1R): 50 µM
efflux ratio (human MDR1 P-gp): 2.3

COCC(C)(C)c1cc(NC(=O)C(C)(C)N(C)CC2CCOCC2)on1 [Example 46 in WO2010147792]
efflux ratio (human MDR1 P-gp): 0.63

CN(C1CCN(S(C)(=O)=O)CC1)C(C)(C)C(=O)Nc1cc(C(C)(C)CO)no1 [Example 47 in WO2010147792]
efflux ratio (human MDR1 P-gp): 14

CC(C)(O)c1cc(NC(=O)C(C)(C)S(=O)(=O)C2CCOCC2)on1 [Example 133 WO2010036630]
efflux ratio (human MDR1 P-gp): 4.7
